Several values for one entry are separate records, joined by “and”; a condition that tells them apart may be missing. Equal entries are not always repeated. Inconclusive results and toxic doses are left out.

This is an account of results in PubChem BioAssay AID330 (DTP/NCI, 2004).

The subject of this test is P388 leukemia ip, CD2F1 mice, survival T/C. As to the kind of experiment: NCI In Vivo Anticancer Drug Screen. Data for tumor model P388 Leukemia (intraperitoneal) in CD2F1 (CDF1) mice. The note with it: endpoint: median survival time, higher = longer survival. In outline:
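Mice carrying the transplanted tumor received test compound or vehicle. Survival was recorded in each group, and the value is the treated-group measurement divided by that of the vehicle-treated control group.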

Setting [1] is: dose: 50.0 mg/kg/injection, schedule: Q01DX009 (ip), vehicle: saline with Tween-80.
Setting [2] is: dose: 100.0 mg/kg/injection, schedule: Q01DX009 (ip), vehicle: saline with Tween-80.
Setting [3] is: dose: 200.0 mg/kg/injection, schedule: Q01DX009 (ip), vehicle: saline with Tween-80.
Where [4] appears, read: dose: 50.0 mg/kg/injection, schedule: Q01DX005 (ip), vehicle: saline with Tween-80.
Setting [5] is: dose: 100.0 mg/kg/injection, schedule: Q01DX005 (ip), vehicle: saline with Tween-80.
Where [6] appears, read: dose: 200.0 mg/kg/injection, schedule: Q01DX005 (ip), vehicle: saline with Tween-80.
Where [7] appears, read: dose: 50.0 mg/kg/injection, schedule: Q01DX005 (ip), vehicle: Klucel (hydroxypropylcellulose) (HPC).
Where [8] appears, read: dose: 100.0 mg/kg/injection, schedule: Q01DX005 (ip), vehicle: Klucel (hydroxypropylcellulose) (HPC).
[9] abbreviates: dose: 200.0 mg/kg/injection, schedule: Q01DX005 (ip), vehicle: Klucel (hydroxypropylcellulose) (HPC).
Where [10] appears, read: dose: 25.0 mg/kg/injection, schedule: Q04DX003 (ip), vehicle: saline with Tween-80.
Where [11] appears, read: dose: 50.0 mg/kg/injection, schedule: Q04DX003 (ip), vehicle: saline with Tween-80.
Where [12] appears, read: dose: 100.0 mg/kg/injection, schedule: Q04DX003 (ip), vehicle: saline with Tween-80.
[13] abbreviates: dose: 50.0 mg/kg/injection, schedule: Q01DX009 (ip), vehicle: saline.
The mark [14] stands for this setting: dose: 100.0 mg/kg/injection, schedule: Q01DX009 (ip), vehicle: saline.

Regarding `C=CCC1(CCC)C(=O)NC(=S)NC1=O`, the T/C under setting [1] is 110 % of control, the T/C under setting [2] is 117 % of control and the T/C under setting [3] is 115 % of control.

As for `CC(NNC(=S)NCc1ccccc1)c1cc2ccccc2cn1` (stereo not given), the T/C is, setting by setting: under setting [4], 106 % of control and 113 % of control; under setting [5], 119 % of control; under setting [6], 160 % of control.

Take `COc1cc(Br)cc(OC)c1N`: the T/C runs as follows: under setting [1], 97 % of control; under setting [2], 100 % of control; under setting [3], 105 % of control.

Take `COc1ccccc1OCC(O)CNc1ccc(Cl)cc1C(=O)c1ccccc1Cl` (stereo not given): the T/C by setting is: under setting [4], 90 % of control; under setting [5], 90 % of control; under setting [6], 88 % of control.

In the case of `Cc1c(C(=O)CC2OC(=O)C(Cl)=C2Cl)c2ccccc2n1C(=O)Nc1ccc(Cl)cc1` (stereo not given), the T/C reads like this: (dose: 60.0 mg/kg/injection, schedule: Q01DX005 (ip), vehicle: saline with Tween-80) 93 % of control; (dose: 120.0 mg/kg/injection, schedule: Q01DX005 (ip), vehicle: saline with Tween-80) 99 % of control; (dose: 240.0 mg/kg/injection, schedule: Q01DX005 (ip), vehicle: saline with Tween-80) 94 % of control.

Take `Cc1ccc(S(=O)(=O)N/N=C\c2cccnc2)cc1`: the T/C is 105 % of control (dose: 12.5 mg/kg/injection, schedule: Q01DX009 (ip), vehicle: other); 110 % of control (dose: 25.0 mg/kg/injection, schedule: Q01DX009 (ip), vehicle: other); 105 % of control (dose: 50.0 mg/kg/injection, schedule: Q01DX009 (ip), vehicle: other); 109 % of control and 95 % of control (dose: 100.0 mg/kg/injection, schedule: Q01DX009 (ip), vehicle: other); 99 % of control and 100 % of control (dose: 200.0 mg/kg/injection, schedule: Q01DX009 (ip), vehicle: other); 101 % of control (dose: 400.0 mg/kg/injection, schedule: Q01DX009 (ip), vehicle: other).

With `COc1ccccc1-n1c(C)nc2c(cnn2CN2CCCCC2)c1=O`, the T/C by setting is: under setting [7], 99 % of control; under setting [8], 115 % of control; under setting [9], 101 % of control.

Turning to `CN(C)CCCN(c1ccccc1)c1ccccc1`, the T/C was 98 % of control under setting [7], 98 % of control under setting [8] and 98 % of control under setting [9].

As to `COc1cc(C)c(OC)c(C/C=C(\C)CC2=C(CC(C)(C)O)C(=O)[C@]3(C)CCC[C@]3(C)C2)c1`, the T/C by setting is: (dose: 5.0 mg/kg/injection, schedule: Q01DX005 (ip), vehicle: saline with Tween-80) 105 % of control; (dose: 10.0 mg/kg/injection, schedule: Q01DX005 (ip), vehicle: saline with Tween-80) 94 % of control; (dose: 20.0 mg/kg/injection, schedule: Q01DX005 (ip), vehicle: saline with Tween-80) 94 % of control.

`CCCCC(C)(C(=O)OCC)C(=O)OCC`: the T/C reads like this: (dose: 12.5 mg/kg/injection, schedule: Q01DX005 (ip), vehicle: Klucel (hydroxypropylcellulose) (HPC)) 105 % of control; (dose: 25.0 mg/kg/injection, schedule: Q01DX005 (ip), vehicle: Klucel (hydroxypropylcellulose) (HPC)) 105 % of control; under setting [7], 105 % of control; under setting [8], 105 % of control; under setting [9], 111 % of control; (dose: 400.0 mg/kg/injection, schedule: Q01DX005 (ip), vehicle: Klucel (hydroxypropylcellulose) (HPC)) 105 % of control.

Turning to `O=C(O)c1cc(O)c(O)c(OC(=O)c2cc(O)c(O)c(O)c2CNc2ccc3cc(S(=O)(=O)O)cc(S(=O)(=O)O)c3c2)c1`, the T/C reads like this: under setting [4], 110 % of control; under setting [5], 115 % of control; under setting [6], 112 % of control.

Turning to `COCC(O)CN1CCN(c2ccccc2C)CC1` (stereo not given), the T/C reads like this: under setting [10], 100 % of control; under setting [11], 100 % of control; under setting [12], 90 % of control.

`O=C(CCN1CCCCC1)c1ccccc1`: the T/C runs as follows: (dose: 5.0 mg/kg/injection, schedule: Q01DX009 (ip), vehicle: saline) 100 % of control; (dose: 10.0 mg/kg/injection, schedule: Q01DX009 (ip), vehicle: saline) 113 % of control; (dose: 20.0 mg/kg/injection, schedule: Q01DX009 (ip), vehicle: saline) 109 % of control; under setting [1], 97 % of control.

Take `CC(N)CC(N)CC(=O)O` (stereo not given): the T/C runs as follows: (dose: 60.0 mg/kg/injection, schedule: Q01DX005 (ip), vehicle: saline) 100 % of control and 99 % of control; (dose: 120.0 mg/kg/injection, schedule: Q01DX005 (ip), vehicle: saline) 102 % of control and 100 % of control; (dose: 240.0 mg/kg/injection, schedule: Q01DX005 (ip), vehicle: saline) 90 % of control and 91 % of control.

As for `O=C(N=C(N=C(c1ccccc1)N1CCOCC1)c1ccccc1)c1ccccc1`, the T/C by setting is: under setting [1], 106 % of control; under setting [2], 102 % of control; under setting [3], 103 % of control.

`O=C(/C=C1\Nc2ccccc2N(C(=O)c2ccccc2)C1c1ccccc1)c1ccccc1` (stereo not given): the T/C by setting is: (dose: 7.5 mg/kg/injection, schedule: Q01DX005 (ip), vehicle: Klucel (hydroxypropylcellulose) (HPC)) 103 % of control; (dose: 15.0 mg/kg/injection, schedule: Q01DX005 (ip), vehicle: Klucel (hydroxypropylcellulose) (HPC)) 88 % of control; (dose: 30.0 mg/kg/injection, schedule: Q01DX005 (ip), vehicle: Klucel (hydroxypropylcellulose) (HPC)) 88 % of control and 91 % of control; (dose: 120.0 mg/kg/injection, schedule: Q01DX005 (ip), vehicle: Klucel (hydroxypropylcellulose) (HPC)) 88 % of control.

For the compound `CC(=N\O)/C(=N/O)c1ccccc1`, the T/C runs as follows: under setting [11], 106 % of control; under setting [12], 98 % of control; (dose: 200.0 mg/kg/injection, schedule: Q04DX003 (ip), vehicle: saline with Tween-80) 98 % of control; (dose: 400.0 mg/kg/injection, schedule: Q04DX003 (ip), vehicle: saline with Tween-80) 104 % of control.

As for `CN(C)CCS(=O)(=O)O`, the T/C (dose: 1.56 mg/kg/injection, schedule: Q04DX003 (ip), vehicle: saline) is 100 % of control; the T/C (dose: 3.12 mg/kg/injection, schedule: Q04DX003 (ip), vehicle: saline) is 100 % of control; the T/C (dose: 6.25 mg/kg/injection, schedule: Q04DX003 (ip), vehicle: saline) is 88 % of control; the T/C (dose: 12.5 mg/kg/injection, schedule: Q04DX003 (ip), vehicle: saline) was 94 % of control; the T/C (dose: 50.0 mg/kg/injection, schedule: Q04DX003 (ip), vehicle: saline) is 97 % of control; the T/C (dose: 100.0 mg/kg/injection, schedule: Q04DX003 (ip), vehicle: saline) was 102 % of control.

As for `OCCN1CCN(CCCN2c3cc(Cl)ccc3Sc3sccc32)CC1`, the T/C was 92 % of control under setting [7]; 100 % of control (dose: 50.0 mg/kg/injection, schedule: Q01DX005 (ip), vehicle: saline); 90 % of control under setting [8]; 106 % of control (dose: 100.0 mg/kg/injection, schedule: Q01DX005 (ip), vehicle: saline).

`N#C/C(=C\c1ccc([N+](=O)[O-])o1)[N+](=O)[O-]`: the T/C by setting is: under setting [13], 103 % of control; under setting [14], 93 % of control.

For the compound `Cc1nc2c([N+](=O)[O-])c(N(C)C)c([N+](=O)[O-])cc2[nH]1`, the T/C under setting [10] was 96 % of control and the T/C under setting [11] was 87 % of control.

`COc1ccccc1C1CC(c2ccccc2)=Nc2ccccc2S1` (stereo not given): the T/C is, setting by setting: (dose: 50.0 mg/kg/injection, schedule: Q01DX009 (ip), vehicle: Klucel (hydroxypropylcellulose) (HPC)) 96 % of control; (dose: 100.0 mg/kg/injection, schedule: Q01DX009 (ip), vehicle: Klucel (hydroxypropylcellulose) (HPC)) 100 % of control; (dose: 200.0 mg/kg/injection, schedule: Q01DX009 (ip), vehicle: Klucel (hydroxypropylcellulose) (HPC)) 101 % of control.

Regarding `O=C(SCCO)SCCO`, the T/C reads like this: under setting [13], 86 % of control; under setting [14], 89 % of control; (dose: 200.0 mg/kg/injection, schedule: Q01DX009 (ip), vehicle: saline) 88 % of control.

`N#CC1CC2(CCC1=O)c1ccccc1-c1ccccc12` (stereo not given): the T/C reads like this: (dose: 25.0 mg/kg/injection, schedule: Q04DX002 (ip), vehicle: saline with Tween-80) 92 % of control; (dose: 50.0 mg/kg/injection, schedule: Q04DX002 (ip), vehicle: saline with Tween-80) 98 % of control.

For `CC1CCc2c(c3ccc(O)cc3oc2=O)C1` (stereo not given), the T/C is 101 % of control under setting [7], 96 % of control under setting [8] and 92 % of control under setting [9].
